Tested on: endogenous cellular STAT1 (phosphorylated at Tyr701) in NCI-H1373 cells
Test: Phospho-STAT1 (Tyr701) LANCE Ultra TR-FRET Detection Assay
Assay type: cell-based
Conditions: Homo sapiens, NCI-H1373, 48 h, phospho-STAT1 (Tyr701) induction, read-out: NH1373 pSTAT1 EC50
Method: Phospho-STAT1 (Tyr701 LANCE Ultra TR-FRET Detection Assay
d. LANCE Ultra phospho-STAT1 (Tyr701) kits are designed for the detection of phosphorylated STAT1 in cell lysates using a simple, homogeneous LANCE Ultra sandwich assay (Cat. #TRF4028M). This assay is intended for assessing compound induction of endogenous levels of cellular STAT1 (phosphorylated at Tyr701) in NCI-H1373 cells. The NCI-H1373 cells are cultured in RPMI 1640 media containing 10% heat inactivated FBS, GlutaMAX, 1% Penicillin-Streptomycin. An Echo acoustic liquid handler is used to transfer 60 nanoliters of compound dilutions using the Echo Qualified, 384-well polypropylene microplate clear flat bottom source plates into a Greiner (#781080) cell culture microplate. NCI-H1373 cells are seeded into these compound-spotted culture plates at 30,000 cells/well in a 60 uL volume in growth media. The plates are incubated in a 5% CO2 humidified incubator at 37° C. for 48 hours. […] After spinning the plate down at 300 rpm for 1 min, the plate is read on an EnVision plate reader set up for Eu3+ Cryptate and fluorescence emission is measured at two different wavelengths (665 nm and 620 nm). The HTRF ratio is then calculated […] for each well to determine the amount of pSTAT1 in the cell lysate, and the data is then normalized to 10 uM GS-1154611 positive and DMSO negative controls.

| Compound | EC50 [nM] |
| --- | --- |
| O=c1[nH]ncc(N[C@H](CCCn2ccc3cc(-c4ncc(Cl)cn4)c(F)c(F)c3c2=O)COC(F)F)c1C(F)(F)F [Example 392, (R)-6-(5-chloropyrimidin-2-yl)-2-(5-(difluoromethoxy)-4-((6-oxo-5-(trifluoromethyl)-1,6-dihydropyridazin-4-yl)amino)pentyl)-7,8-difluoroisoquinolin-1(2H)-one] | 1.5 |
| O=c1[nH]ncc(N[C@H]2CCC[C@@H](Cn3ccc4cc(-c5ncc(C6CC6)cn5)c(F)cc4c3=O)C2)c1C(F)(F)F [Example 241] | 6.38 |
| COc1cnc(-c2cc3ccn(CCC[C@H](COC(F)F)Nc4cn[nH]c(=O)c4C(F)(F)F)c(=O)c3cc2F)nc1N [Example 370, (R)-6-(4-amino-5-methoxypyrimidin-2-yl)-2-(5-(difluoromethoxy)-4-((6-oxo-5-(trifluoromethyl)-1,6-dihydropyridazin-4-yl)amino)pentyl)-7-fluoroisoquinolin-1(2H)-one] | 8.33 |
| C[C@@H](CCCn1ccc2cc(-c3ncc4c(n3)NCCO4)c(F)cc2c1=O)Nc1cn[nH]c(=O)c1C(F)(F)F [Example 118, 6-(7,8-dihydro-6H-pyrimido[5,4-b] [1,4]oxazin-2-yl)-7-fluoro-2-[(4S)-4-[[6-oxo-5-(trifluoromethyl)-1H-pyridazin-4-yl]amino]pentyl]isoquinolin-1-one] | 9.84 |
| O=c1[nH]ncc(N[C@H](CCCn2cnc3cc(-c4ccc(C(F)(F)F)cn4)c(F)cc3c2=O)COC(F)F)c1C(F)(F)F [Example 403, (R)-3-(5-(difluoromethoxy)-4-((6-oxo-5-(trifluoromethyl)-1,6-dihydropyridazin-4-yl)amino)pentyl)-6-fluoro-7-(5-(trifluoromethyl)pyridin-2-yl)quinazolin-4(3H)-one] | 3.65 |
| C[C@@H](CCCn1ccc2cc(-c3ncnc(N)n3)c(F)cc2c1=O)Nc1cn[nH]c(=O)c1C(F)(F)F [Example 365, (S)-6-(4-amino-1,3,5-triazin-2-yl)-7-fluoro-2-(4-((6-oxo-5-(trifluoromethyl)-1,6-dihydropyridazin-4-yl)amino)pentyl)isoquinolin-1(2H)-one] | 55.8 |
| C[C@@H](CCCn1cnc2cc(-c3ncc(C(F)(F)F)c(N4CCOCC4)n3)c(F)cc2c1=O)Nc1cn[nH]c(=O)c1C(F)(F)F [Example 201, (S)-6-fluoro-7-(4-morpholino-5-(trifluoromethyl)pyrimidin-2-yl)-3-(4-((6-oxo-5-(trifluoromethyl)-1,6-dihydropyridazin-4-yl)amino)pentyl)quinazolin-4(3H)-one] | 4.03 |
| CC[C@@H](CCCn1cnc2cc(-c3cnc(C(F)(F)F)c(N)n3)c(F)cc2c1=O)Nc1cn[nH]c(=O)c1C(F)(F)F [Example 347, (S)-7-(6-amino-5-(trifluoromethyl)pyrazin-2-yl)-6-fluoro-3-(4-((6-oxo-5-(trifluoromethyl)-1,6-dihydropyridazin-4-yl)amino)hexyl)quinazolin-4(3H)-one] | 93.4 |
| COc1cnc(-c2cc3ccn(CCC[C@@H]4CCCN4c4cn[nH]c(=O)c4C(F)(F)F)c(=O)c3cc2F)nc1N [Example 122, (S)-6-(4-amino-5-methoxypyrimidin-2-yl)-7-fluoro-2-(3-(1-(6-oxo-5-(trifluoromethyl)-1,6-dihydropyridazin-4-yl)pyrrolidin-2-yl)propyl)isoquinolin-1(2H)-one] | 8.04 |
| O=c1[nH]ncc(N[C@H]2CCC[C@@H](Cn3cc(Br)c4cc(-c5ncc(C(F)(F)F)cn5)c(F)cc4c3=O)C2)c1C(F)(F)F [Example 459, 4-bromo-7-fluoro-2-(((1R,3S)-3-((6-oxo-5-(trifluoromethyl)-1,6-dihydropyridazin-4-yl)amino)cyclohexyl)methyl)-6-(5-(trifluoromethyl)pyrimidin-2-yl)isoquinolin-1(2H)-one] | 12.2 |

Reference: US12459922B2 (Gilead Sciences, Inc., priority 2022, dated 2025)
